From patent publication US12421238B2, “Selective dihydropyrrolopyrimidine JAK2 inhibitors” (CHENGDU JINRUI FOUNDATION BIOTECH CO., LTD., priority 2019, dated 2025) come the findings set out here.

A value given as a limit tells only on which side of the number the result lay.

The target in data set [1] is T1, JAK3 (Homo sapiens, UniProt P52333).
T1 sequence (P52333 1-1124): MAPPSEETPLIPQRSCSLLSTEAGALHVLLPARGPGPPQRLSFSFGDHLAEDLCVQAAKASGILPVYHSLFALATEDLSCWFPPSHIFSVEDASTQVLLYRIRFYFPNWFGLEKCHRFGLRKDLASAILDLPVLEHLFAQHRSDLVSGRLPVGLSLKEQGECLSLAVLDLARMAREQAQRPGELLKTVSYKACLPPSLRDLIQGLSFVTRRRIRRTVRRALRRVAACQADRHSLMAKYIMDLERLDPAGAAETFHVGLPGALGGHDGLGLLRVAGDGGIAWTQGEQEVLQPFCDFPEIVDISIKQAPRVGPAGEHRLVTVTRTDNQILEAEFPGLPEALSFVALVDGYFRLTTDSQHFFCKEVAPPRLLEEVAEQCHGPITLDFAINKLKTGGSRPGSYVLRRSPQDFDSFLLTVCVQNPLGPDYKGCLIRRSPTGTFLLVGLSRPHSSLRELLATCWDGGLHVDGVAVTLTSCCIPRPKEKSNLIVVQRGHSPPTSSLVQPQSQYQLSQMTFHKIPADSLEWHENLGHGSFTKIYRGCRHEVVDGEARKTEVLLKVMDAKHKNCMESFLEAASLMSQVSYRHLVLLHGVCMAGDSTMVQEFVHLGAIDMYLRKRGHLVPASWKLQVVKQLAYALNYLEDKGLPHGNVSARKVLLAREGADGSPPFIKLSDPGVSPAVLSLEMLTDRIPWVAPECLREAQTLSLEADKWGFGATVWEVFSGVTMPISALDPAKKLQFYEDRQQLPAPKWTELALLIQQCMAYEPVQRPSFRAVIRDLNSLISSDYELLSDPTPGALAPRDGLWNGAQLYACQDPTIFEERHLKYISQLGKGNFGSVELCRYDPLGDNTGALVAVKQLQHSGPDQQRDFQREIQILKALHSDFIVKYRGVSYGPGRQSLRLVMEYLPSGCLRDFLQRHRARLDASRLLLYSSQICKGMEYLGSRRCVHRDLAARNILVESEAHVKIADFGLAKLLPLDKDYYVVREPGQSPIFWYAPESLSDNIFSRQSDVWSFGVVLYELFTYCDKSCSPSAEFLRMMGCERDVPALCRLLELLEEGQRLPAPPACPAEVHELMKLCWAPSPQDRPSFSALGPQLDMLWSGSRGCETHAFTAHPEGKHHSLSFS
In words: Kinase activity test on JAK3 (Caliper EZ Reader conversion rate).

The test system of data set [2] is TF-1. In words: TF-1 cell proliferation experiment (CellTiter Glo). Type of data set: cell-based. The following applies: Homo sapiens; TF-1 cells, 72 hours; read-out: TF-1 (μM), proliferation inhibition.
A short description of data set [3]: Acute toxicity test, single oral administration to ICR mice (MTD). Type of data set: in vivo. The note with it: ICR, mouse, in vivo, po, read-out: MTD (maximum tolerated dose).
In data set [4] the test system is ICR mice. The description is as above. Type of data set: in vivo.
Data set [5] addresses JAK2 (Homo sapiens, UniProt O60674). In words: Kinase activity test on JAK2 (Caliper EZ Reader conversion rate).
For data set [6], the target named is JAK1 (Homo sapiens, UniProt P23458). In words: Kinase activity test on JAK1 (Caliper EZ Reader conversion rate).
JAK1, sequence (P23458 whole entry): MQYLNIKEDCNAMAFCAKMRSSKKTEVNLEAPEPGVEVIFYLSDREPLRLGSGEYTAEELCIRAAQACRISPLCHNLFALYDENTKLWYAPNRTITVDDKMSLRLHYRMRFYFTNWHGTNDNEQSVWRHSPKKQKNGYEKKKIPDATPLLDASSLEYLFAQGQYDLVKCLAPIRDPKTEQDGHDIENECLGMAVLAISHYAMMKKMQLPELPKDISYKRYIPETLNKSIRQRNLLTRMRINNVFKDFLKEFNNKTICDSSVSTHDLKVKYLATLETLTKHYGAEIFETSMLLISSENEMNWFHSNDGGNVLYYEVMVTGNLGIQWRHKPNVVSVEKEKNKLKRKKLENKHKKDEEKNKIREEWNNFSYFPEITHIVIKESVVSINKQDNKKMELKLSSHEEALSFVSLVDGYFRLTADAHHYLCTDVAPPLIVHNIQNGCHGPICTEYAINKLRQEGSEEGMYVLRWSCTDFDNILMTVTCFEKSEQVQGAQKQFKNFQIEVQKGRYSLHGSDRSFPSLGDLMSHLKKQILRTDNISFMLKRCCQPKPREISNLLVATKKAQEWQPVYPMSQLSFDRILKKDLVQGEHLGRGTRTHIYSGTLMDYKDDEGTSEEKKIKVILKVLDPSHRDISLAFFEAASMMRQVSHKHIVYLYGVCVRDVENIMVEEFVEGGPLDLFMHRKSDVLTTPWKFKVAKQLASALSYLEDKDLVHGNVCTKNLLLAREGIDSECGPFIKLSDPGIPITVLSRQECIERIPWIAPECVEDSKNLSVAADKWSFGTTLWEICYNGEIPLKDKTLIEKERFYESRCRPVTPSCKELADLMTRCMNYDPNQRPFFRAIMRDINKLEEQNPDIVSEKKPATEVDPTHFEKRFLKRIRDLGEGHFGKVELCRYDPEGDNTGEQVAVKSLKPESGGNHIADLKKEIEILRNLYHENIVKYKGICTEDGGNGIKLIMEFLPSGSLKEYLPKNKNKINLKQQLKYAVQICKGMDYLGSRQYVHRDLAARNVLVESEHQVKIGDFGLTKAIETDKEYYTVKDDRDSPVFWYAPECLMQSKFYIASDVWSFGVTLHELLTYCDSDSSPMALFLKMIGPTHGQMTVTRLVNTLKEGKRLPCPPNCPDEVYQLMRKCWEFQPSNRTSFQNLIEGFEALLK
Data set [7] deals with HEL92.1.7. In words: HEL92.1.7 cell proliferation experiment (Cell Titer-Glo). Type of data set: cell-based. The note with it: Homo sapiens, HEL 92.1.7; HEL92.1.7 cells, 72 hours.
A short description of data set [8]: Pharmacokinetic test in SD rats, intragastric administration. Type of data set: in vivo. The following applies: rat, po, single intragastric administration, 25 mg/kg, plasma. Here is the method:
SD rats were used as the test animals.
Standard curve and preparation and processing of quality control samples:
Stock solution was diluted with 50% acetonitrile/water solution to obtain standard working solutions of 0.04, 0.10, 0.20, 0.40, 1.00, 2.00, 4.00 μg/mL, and quality control working solutions of 0.10, 1.00, 3.00 μg/mL. 2.50 μL of standard curve working solutions and quality control working solutions were added to 47.5 μL of blank rat plasma, respectively, to obtain standard curve solutions having analyte concentrations of 2.00, 5.00, 10.00, 20.00, 50.00, 100.00, 200.00 ng/mL and quality control samples having concentrations of 5.00, 50.00, and 150.00 ng/mL. 200 μL of acetonitrile (containing 5 ng/mL of the internal standard loratadine) was added. After vortexing for 3 minutes, the solutions were centrifuged at 15000 rpm at 4° C. for 15 minutes. 100 μL of the supernatant was taken for LC-MS/MS analysis. WinNonlin® 8.0 was used to calculate the experimental results.

JAK2, sequence (O60674 whole entry): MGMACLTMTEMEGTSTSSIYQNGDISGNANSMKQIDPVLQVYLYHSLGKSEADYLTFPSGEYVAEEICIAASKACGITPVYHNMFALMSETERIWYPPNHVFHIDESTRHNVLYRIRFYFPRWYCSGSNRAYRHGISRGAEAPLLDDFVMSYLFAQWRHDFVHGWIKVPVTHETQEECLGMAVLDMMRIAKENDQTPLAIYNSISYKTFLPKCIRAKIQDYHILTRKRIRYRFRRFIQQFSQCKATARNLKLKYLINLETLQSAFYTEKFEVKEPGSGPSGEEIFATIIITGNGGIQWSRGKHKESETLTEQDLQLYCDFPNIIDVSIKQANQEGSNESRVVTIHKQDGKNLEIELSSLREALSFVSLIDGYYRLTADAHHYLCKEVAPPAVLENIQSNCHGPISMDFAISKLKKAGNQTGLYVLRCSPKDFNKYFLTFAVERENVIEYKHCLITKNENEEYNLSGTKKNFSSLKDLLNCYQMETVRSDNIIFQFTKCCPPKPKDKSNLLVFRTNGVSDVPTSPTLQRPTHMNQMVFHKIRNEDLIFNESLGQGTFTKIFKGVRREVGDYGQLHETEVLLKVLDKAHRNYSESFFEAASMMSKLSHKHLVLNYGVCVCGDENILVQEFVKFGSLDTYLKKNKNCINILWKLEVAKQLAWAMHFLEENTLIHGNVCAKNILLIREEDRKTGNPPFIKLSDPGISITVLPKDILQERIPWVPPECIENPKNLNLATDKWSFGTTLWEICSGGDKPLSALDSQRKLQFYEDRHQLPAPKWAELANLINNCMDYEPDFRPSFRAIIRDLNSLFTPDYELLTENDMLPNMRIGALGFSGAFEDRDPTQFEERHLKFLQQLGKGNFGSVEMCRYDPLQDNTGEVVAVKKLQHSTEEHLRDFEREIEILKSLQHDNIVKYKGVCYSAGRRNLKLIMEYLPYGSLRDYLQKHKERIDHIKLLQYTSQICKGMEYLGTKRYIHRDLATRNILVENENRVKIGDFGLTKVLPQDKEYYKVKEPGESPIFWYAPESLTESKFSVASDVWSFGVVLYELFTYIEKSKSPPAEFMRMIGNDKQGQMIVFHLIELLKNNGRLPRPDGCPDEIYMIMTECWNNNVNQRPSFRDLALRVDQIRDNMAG

Consider `CC(C)(C)NS(=O)(=O)c1cccc(N2CCc3cnc(Nc4ccc(C5CCNCC5)cc4)nc32)c1` [Compound I-20], for which the IC50 in data set [1] worked out at 1430 nM; in data set [2], 0.19 µM; in data set [5], 1 nM; in data set [6], 130 nM; in data set [7] it was 0.25 µM. In addition, the MTD – broadly, the highest dose tested that stayed within the study's limit of toxicity – at 6 days in data set [3] is more than 2000 mg/kg. Besides, in data set [4], the “MTD (maximum tolerated dose)” value is on record as more than 2000 mg/kg. Moreover, the JAK1/JAK2 in data set [5] (ratio of IC50 values, selectivity for JAK2 over JAK1) stood at 130. The JAK3/JAK2 in data set [5] (ratio of IC50 values, selectivity for JAK2 over JAK3) is 1433. The Cmax in data set [8] (read-out: Blood concentration Cmax) came to 1030 ng/mL. Also, the AUC(0-t) in data set [8] (read-out: Curve area AUClast) came out at 912 ng·h/mL. In addition, in data set [8] (read-out: Half life t1/2 (converted)), the half-life was 6.3 h. Besides, in data set [8] (read-out: Time to peak Tmax), the Tmax (usually the time from dosing to the highest level) came out at 2 h.
